Reference: ChEMBL document CHEMBL3826909, “Quinoxaline-based inhibitors of Ebola and Marburg VP40 egress” (Bioorg Med Chem Lett, 2016)
Activity calls are given as the source filed them. The rule behind the calls is not given here.

What was measured:
Type in all cases: cell-based
Conditions in all cases: HEK-293T
[1] = target: T1, Matrix protein VP40 (Lake Victoria marburgvirus (strain Ravn-87) (MARV) (Marburg virus (strainKenya/Ravn/1987))) (UniProt Q1PDC8); experiment: Inhibition of Marburg virus VP40 PPxY L-domain motif expressed in HEK293T cells assessed as reduction in VLP budding at 1 uM relative to control
T1 sequence (whole entry): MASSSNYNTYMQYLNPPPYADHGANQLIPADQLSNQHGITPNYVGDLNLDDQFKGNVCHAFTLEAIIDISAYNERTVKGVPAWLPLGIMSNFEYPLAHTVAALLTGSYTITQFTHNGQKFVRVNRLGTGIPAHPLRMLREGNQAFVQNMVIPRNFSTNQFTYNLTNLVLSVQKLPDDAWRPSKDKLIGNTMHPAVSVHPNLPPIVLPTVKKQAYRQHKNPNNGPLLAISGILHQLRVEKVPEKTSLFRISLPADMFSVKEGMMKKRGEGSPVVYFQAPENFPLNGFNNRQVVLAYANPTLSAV

[2] = target: T1, Matrix protein VP40 (Lake Victoria marburgvirus (strain Ravn-87) (MARV) (Marburg virus (strainKenya/Ravn/1987))); experiment: Inhibition of Marburg virus VP40 PPxY L-domain motif expressed in HEK293T cells assessed as reduction in VLP budding at 0.1 uM relative to control
[3] = target: T1, Matrix protein VP40 (Lake Victoria marburgvirus (strain Ravn-87) (MARV) (Marburg virus (strainKenya/Ravn/1987))); experiment: Inhibition of Marburg virus VP40 PPxY L-domain motif expressed in HEK293T cells assessed as reduction in VLP budding at 0.03 uM relative to control
[4] = target: T1, Matrix protein VP40 (Lake Victoria marburgvirus (strain Ravn-87) (MARV) (Marburg virus (strainKenya/Ravn/1987))); experiment: Inhibition of Marburg virus VP40 PPxY L-domain motif expressed in HEK293T cells assessed as reduction in VLP budding at 0.3 uM relative to control

| Structure (SMILES) | inhibition [1] | inhibition [2] | inhibition [3] | inhibition [4] [%] |
| --- | --- | --- | --- | --- |
| Cc1nc2ccccc2nc1SCC(=O)NC(=O)Nc1cc[nH]n1 | inactive | – | – | – |
| Cc1nc2ccccc2nc1SCC(=O)NC(=O)Nc1ccc(Cl)cc1 | – | 82% | – | – |
| COc1cccc(NC(=O)NC(=O)CSc2nc3ccccc3nc2C)c1 | 100% | 60% | inactive | 98 |
| Cc1nc2ccccc2nc1SCC(=O)NC(=O)NCc1ccccc1 | 60% | 29% | – | – |
| Cc1cccc(NC(=O)NC(=O)CSc2nc3ccccc3nc2C)c1C | – | – | 41% | 98 |
| Cc1nc2ccccc2nc1SCC(=O)NC(=O)Nc1c(C)nn(-c2ccccc2)c1C | inactive | – | – | – |
| Cc1ccc(NC(=O)NC(=O)CSc2nc3ccccc3nc2C)cn1 | – | 87% | – | – |
| Cc1ccc(NC(=O)NC(=O)CSc2nc3ccccc3nc2C)nc1 | – | 96% | – | – |
| CCc1ccc(C)nc1NC(=O)NC(=O)CSc1nc2ccccc2nc1C | – | – | 48% | – |
| Cc1ccc(F)cc1NC(=O)NC(=O)CSc1nc2ccccc2nc1C | – | 89% | – | – |
| Cc1nc2ccccc2nc1SCC(=O)NC(=O)Nc1cccc(Cl)c1 | – | – | – | 49 |
| Cc1c(F)cccc1NC(=O)NC(=O)CSc1nc2ccccc2nc1C(F)(F)F | – | inactive | – | – |
| COc1ccc(NC(=O)NC(=O)CSc2nc3ccccc3nc2C)cc1 | 100% | 99% | 25% | – |
| Cc1ccc(NC(=O)NC(=O)CSc2nc3ccccc3nc2C)c(C)c1 | – | – | 62% | 100 |
| CCc1nc2ccccc2nc1SCC(=O)NC(=O)Nc1ccccc1Cl | – | inactive | – | – |
| O=C(CSc1nc2ccccc2nc1Cc1ccccc1)NC(=O)Nc1ccc(F)cc1 | inactive | – | – | – |
| Cc1ccccc1NC(=O)NC(=O)COc1nc2ccccc2nc1C | 100% | 58% | – | 100 |
| O=C(CSc1cnc2ccccc2n1)NC(=O)Nc1ccccc1F | inactive | – | – | – |
| Cc1ncccc1NC(=O)NC(=O)CSc1nc2ccccc2nc1C | – | 41% | – | – |
| Cc1ccc(NC(=O)NC(=O)COc2nc3ccccc3nc2C)cc1 | – | 70% | – | – |

| Structure (SMILES) | inhibition [1] | inhibition [2] | inhibition [3] | inhibition [4] [%] |
| --- | --- | --- | --- | --- |
| Cc1cccc(C)c1NC(=O)NC(=O)CSc1nc2ccccc2nc1C | – | – | inactive | 100 |
| Cc1nc2ccccc2nc1SCC(=O)NC(=O)Nc1cccc(F)c1 | 41% | – | – | – |
| Cc1cccnc1NC(=O)NC(=O)CSc1nc2ccccc2nc1C | – | 45% | – | – |
| Cc1nc2ccccc2nc1SCC(=O)N(C)C(=O)Nc1ccccc1F | inactive | – | – | – |
| Cc1nc2ccccc2nc1SCC(=O)NC(=O)NCc1cccs1 | 97% | inactive | – | – |
| Cc1cc(C)cc(NC(=O)NC(=O)CSc2nc3ccccc3nc2C)c1 | – | – | 44% | 100 |
| Cc1nc2ccccc2nc1SCC(=O)NC(=O)Nc1ccccn1 | 80% | inactive | – | – |
| Cc1ccncc1NC(=O)NC(=O)CSc1nc2ccccc2nc1C | – | 85% | – | – |
| Cc1nc2ccccc2nc1SCC(=O)NC(=O)Nc1c(C)n[nH]c1C | 50% | – | – | – |
| Cc1nc2ccccc2nc1SCC(=O)NC(=O)Nc1cccnc1 | 78% | 44% | – | – |
| Cc1nc2ccccc2nc1SCC(=O)NC(=O)Nc1ccc(F)cc1 | 80% | – | – | – |
| Cc1nc2ccccc2nc1SCC(=O)NC(=O)N(C)c1ccccc1 | inactive | – | – | – |
| Cc1ccc(NC(=O)NC(=O)CSc2nc3ccccc3nc2C)cc1C | – | – | 29% | 97 |
| Cc1nc2ccccc2nc1SCC(=O)NC(=O)Nc1ccccc1C#N | 87% | – | – | – |
| Cc1nc2ccccc2nc1SCC(=O)NC(=O)Nc1cc(Cl)ccc1Cl | – | – | 37% | – |
| Cc1nc2ccccc2nc1SCC(=O)NC(=O)Nc1c(C)nn(C)c1C | 64% | – | – | – |
| Cc1nc2ccccc2nc1SCC(=O)NC(=O)Nc1cccc(C#N)c1 | 72% | – | – | – |
| Cc1nc2ccccc2nc1S(=O)(=O)CC(=O)NC(=O)Nc1ccc(F)cc1 | inactive | – | – | – |
| Cc1nc2ccccc2nc1SCC(=O)NC(=O)N1CCc2ccccc21 | inactive | – | – | – |
